Results taken from US10307401B2, “Compositions and methods for treatment of prostate cancer” (priority 2016, dated 2019).

Key:
[1] = system: KLK3 and HOMER2 expression in LREX′ cells; assay: Gene expression analysis (qRT-PCR) of genes co-regulated by AR and GR in LREX′ cells; format: cell-based
Description: (§1) LNCaP/AR and LREX′ cells were cultured for 72 hours after plating in phenol-red free RPMI 1640 (10% CT-FBS) in six well plates at 40,000 and 50,000 cells/mL, respectively. LNCaP/AR cells were treated with 10 μM ARE-1, bicalutamide (bic), or enzalutamide (enz, Aurum Pharmatech) for an additional 48, 2, and 2 hours, respectively, prior to treatment with 1 nM DHT or ethanol for 16 hours. LREX′ cells were treated with 10 μM ARE-1 for 16 hours prior to induction with 1 nM DHT or 100 nM dexamethasone (dex) for 8 hours. RNA extraction (RNEasy columns, Qiagen), cDNA generation (Transcriptor First Strand cDNA kit, Roche), and qRT-PCR (SYBR Green Master Mix, Applied Biosystems, ABI7300 instrument) were as described (10-12). Expression was normalized to β-glucuronidase.

[2] = Plasma concentration of ARE-1 in LREX′ tumor bearing SCID mice; format: in vivo; settings: 2.5 mg/kg, terminal blood samples, linear trapezoidal method
Description: (§2) Animal experiments were performed at Caltech under IACUC approval. VCaP and LREX′ cells were engrafted as 1:1 mixtures of 3×10^6 cells in Matrigel (BD Biosciences) into flanks of intact and castrated male SCID mice (Charles River), respectively. LREX′ engrafted mice received 10 mg/kg enz (oral gavage) daily. Once tumors were 100 mm^3 (0.5*l*w*w), ARE-1 was administered subcutaneously to opposing flanks in 20% DMSO:saline. For circulation studies, four C57BL6/J animals were injected subcutaneously with ARE-1 at 30 mg/kg and blood collected retroorbitally. Plasma concentrations of ARE-1 were analyzed by HPLC, area under the curve (AUC) approximated by the linear trapezoidal method, as described (12).
(§3) Cell culture experiments represent ≥3 independent biological replicates. Sequencing analyses were duplicates for cell culture and quadruplicates for tumor samples. For xenografts, animals were randomly assigned to groups. For circulation experiments, concentrations of ARE-1 were duplicate measurements. Measurements in cell culture, animal, and immunohistochemistry experiments were assessed by Student's t-test.

[3] = system: hormone sensitive LNCaP xenografts; settings: previously shown, cited from earlier work
LNCaP cells = assay: RNAseq GSEA (Hallmark pathways) in LNCaP cells; format: cell-based, human; settings: LNCaP ARE-1/NT
LREX′ cells [4] = assay: RNAseq GSEA (Hallmark pathways) in LREX′ cells; format: cell-based, human
Description: (§4) LREX′ cells were plated at 50,000 cells/mL in 10 cm^2 dishes, treated with or without 10 μM of ARE-1 in fresh media, incubated 16 hours, and induced with 1 nM DHT for 8 hours. Tumor samples were homogenized mechanically. Total RNA was triazol extracted, sequenced (Illumina HiSeq2000), mapped against the human genome (hg19) with Tophat2 using Ensembl GRCh37 gene annotations. Human and mouse reads from tumor samples were parsed with BBSplit and unique reads were mapped. Htseq-count was used for exon alignment and DESeq2 for differential expression. Gene set enrichment analysis (GSEA) was performed on genes with padj<0.05 and fold change≥1.6 for cell samples and padj<0.05 for tumor samples.

[5] = Circulation study of ARE-1 in C57BL6/J mice; format: in vivo
Description: as §2, §3

LNCaP/AR cells = assay: Cytotoxicity / proliferation in LNCaP/AR cells (WST-1, CellTiter-Glo); format: cell-based; settings: 72 hours, compared with bicalutamide
Text: (§5) The LREX′ and LNCaP/AR cell lines were gifts from Charles Sawyers (Memorial Sloan Kettering) and received in 2014 and 2007, respectively. The VCaP cell line was a gift from Kenneth Pienta (University of Michigan Medical School) and received in 2012. Cells were maintained as previously described (5, 10-13), and were used within 10 passages from thawing. Cells were validated to parental cell lines by STR profile at IDEXXX Bioresearch following experimentation and confirmed to be Mycoplasma free. WST-1 assay (Roche) was used to measure cytotoxicity. The CellTiter-Glo assay was also used in some experiments and is described when used. Long-term toxicity in VCaP cells was assayed by cell counting.

LREX′ tumors = assay: RNAseq GSEA of LREX′ tumor expression profiles; format: in vivo, mice; settings: gene ontology
Description: as §4, §2

LREX′ cells [6] = assay: Cytotoxicity / proliferation in LREX′ cells (WST-1); format: cell-based; settings: with or without 1 nM DHT, 100 nM dex, or both
Text: as §5

VCaP xenografts [7] = assay: VCaP xenografts in intact male SCID mice; format: in vivo
Description: as §2

VCaP cells = assay: Cytotoxicity and long-term viability (cell counting) in VCaP cells; format: cell-based
Text: as §5

[8] = system: nascent RNA in LREX′ cells; assay: Nascent RNA measurement (5-EU incorporation) in LREX′ cells; format: cell-based
Description: LREX′ cells were plated at 100,000 cells/mL in 96 well plates in RPMI 1640 (20% FBS and 1 μM enz), adhered for 24 hours, dosed with ARE-1, incubated for 48 hours. The Click-iT® RNA Alexa Fluor® 488 HCS kit was used for dye conjugation and incorporation of 5-ethynyl uridine (5-EU) was measured on a Flexstation 3 plate reader.
LREX′ cells were plated at 100,000 cells/mL in 175 cm^2 flasks, adhered 24 hours, incubated with 10 μM ARE-1 24, 48, and 72 hours, then with 300 μM 5-EU in fresh media. Cells were detached by Accumax or Accutase, and Alexa Fluor® 488 azide dye was conjugated. Cells were passed through 35 μm mesh prior to flow, sorted on a FACSCalibur instrument (Beckman-Dickinson), analyzed using FlowJo.

[9] = system: KLK3 mRNA in LNCaP/AR cells; assay: Gene expression analysis (qRT-PCR) in LNCaP/AR cells; format: cell-based; settings: 10 μM; for agonist activity (KLK3 mRNA): androgen-depleted conditions
Description: as §1

VCaP xenografts [10] = settings: 10 mg/kg enzalutamide treatment; cited from earlier work

CC(=O)N[C@H](CCNC(=O)c1cc(NC(=O)c2cc(NC(=O)c3cc(NC(=O)c4nccn4C)cn3C)cn2C)cn1C)C(=O)Nc1cn(C)c(C(=O)Nc2cc(C(=O)Nc3cc(C(=O)Nc4cc(C(=O)NCCCN(C)CCCNC(=O)c5cccc(C(=O)O)c5)n(C)c4)n(C)c3)n(C)c2)n1 [ARE-1]
reduction of dex induced transcription ([1]; 100 nM dex, ARE-1 compared with enzalutamide): the opposite was observed with dex induction | KLK3 and HOMER2 expression ([1]; 10 μM ARE-1): represses KLK3 and HOMER2 expression | AUC (plasma) [2]: 25.9 µg·h/mL | host toxicity ([3]; LNCaP xenografts): minimal host toxicity | efficacy against LNCaP xenografts [3]: effective against hormone sensitive LNCaP xenografts | NES HALLMARK APOPTOSIS (LNCaP cells): 2.323 | NES HALLMARK INTERFERON GAMMA RESPONSE (LNCaP cells): 3.06 | NES HALLMARK P53 PATHWAY (LNCaP cells): 3.749 | NES HALLMARK TNFA SIGNALING VIA NFKB (LNCaP cells): 3.248 | NES HALLMARK APICAL JUNCTION (LREX′ cells [4]; LREX′ DHT + ARE-1/DHT): −2.198 | NES HALLMARK DNA REPAIR (LREX′ cells [4]; LREX′ DHT + ARE-1/DHT): 2.055 | NES HALLMARK INTERFERON GAMMA RESPONSE (LREX′ cells [4]; LREX′ DHT + ARE-1/DHT): 2.028 | NES HALLMARK MITOTIC SPINDLE (LREX′ cells [4]; LREX′ DHT + ARE-1/DHT): −2.302 | NES HALLMARK MYC TARGETS V1 (LREX′ cells [4]; LREX′ DHT + ARE-1/DHT): 2.006 | NES HALLMARK OXIDATIVE PHOSPHORYLATION (LREX′ cells [4]; LREX′ DHT + ARE-1/DHT): 2.738 | NES HALLMARK PROTEIN SECRETION (LREX′ cells [4]; LREX′ DHT + ARE-1/DHT): −2.402 | NES HALLMARK UV RESPONSE UP (LREX′ cells [4]; LREX′ DHT + ARE-1/DHT): 2.173 | AUC (plasma) ([5]; 30 mg/kg subcutaneously, C57BL6/J mice, linear trapezoidal method): 189.9 µg·h/mL | time to recovery from weight loss ([5]; 30 mg/kg, mice): ≤ 5 days | visible signs of distress ([5]; 30 mg/kg, mice): without visible signs of distress | weight loss ([5]; 30 mg/kg, mice): 6% | proliferation of LNCaP/AR cells (LNCaP/AR cells): reduced proliferation of LNCaP/AR cells more than bicalutamide | Nes ADENYL NUCLEOTIDE BINDING (LREX′ tumors): −4.22 | Nes CELL PROJECTION ORGANIZATION (LREX′ tumors): −3.813 | Nes CELLULAR AMIDE METABOLIC PROCESS (LREX′ tumors): 4.725 | Nes CHROMATIN BINDING (LREX′ tumors): −3.786 | Nes DOUBLE STRANDED DNA BINDING (LREX′ tumors): −4.074 | Nes MACROMOLECULAR COMPLEX BINDING (LREX′ tumors): −3.726 | Nes MITOCHONDRIAL ENVELOPE (LREX′ tumors): 5.17 | Nes MITOCHONDRIAL PART (LREX′ tumors): 5.946 | Nes MITOCHONDRION (LREX′ tumors): 6.585 | Nes MITOCHONDRION ORGANIZATION (LREX′ tumors): 4.686 | Nes NUCLEIC ACID BINDING TRANSCRIPTION FACTOR ACTIVITY (LREX′ tumors): −5.598 | Nes ORGANELLE INNER MEMBRANE (LREX′ tumors): 4.922 | Nes ORGANONITROGEN COMPOUND BIOSYNTHETIC PROCESS (LREX′ tumors): 4.815 | Nes ORGANONITROGEN COMPOUND METABOLIC PROCESS (LREX′ tumors): 5.958 | Nes REGULATION OF TRANSCRIPTION FROM RNA POLYMERASE II PROMOTER (LREX′ tumors): −4.438 | Nes REGULATORY REGION NUCLEIC ACID BINDING (LREX′ tumors): −4.775 | Nes RIBOSOME (LREX′ tumors): 4.779 | Nes SEQUENCE SPECIFIC DNA BINDING (LREX′ tumors): −4.99 | Nes STRUCTURAL CONSTITUENT OF RIBOSOME (LREX′ tumors): 4.741 | Nes ZINC ION BINDING (LREX′ tumors): −3.923 | proliferation of LREX′ cells (LREX′ cells [6]): reduced proliferation | toxicity (animal weights) (VCaP xenografts [7]; VCaP tumor bearing animals treated with ARE-1): without significant toxicity | reduction of tumor growth compared to vehicle (VCaP xenografts [7]; VCaP xenografts, 5 mg/kg ARE-1 subcutaneously three times per week): 70% | long-term cell viability in VCaP cells (VCaP cells; long-term incubation, cell counting, compared with enzalutamide): more potent than enzalutamide and insensitive to GR activation | proliferation of VCaP cells (VCaP cells; with or without 1 nM DHT, 100 nM dex, or both): reduced proliferation | nascent RNA (5-EU incorporation) [8]: reduced nascent RNA in LREX′ cells | agonist activity (KLK3 mRNA) [9]: no agonist activity | baseline expression of KLK3 ([9]; charcoal stripped media): reduced baseline expression of KLK3

C[C@]12CCC(=O)C[C@@H]1CC[C@@H]1[C@@H]2CC[C@]2(C)[C@@H](O)CC[C@@H]12 [DHT, dihydrotestosterone, reference compound]
NES HALLMARK ANDROGEN RESPONSE (LREX′ cells [4]; LREX′ DHT/NT): 5.031 | NES HALLMARK MYC TARGETS V1 (LREX′ cells [4]; LREX′ DHT/NT): −1.861 | NES HALLMARK MYC TARGETS V2 (LREX′ cells [4]; LREX′ DHT/NT): −1.81 | NES HALLMARK OXIDATIVE PHOSPHORYLATION (LREX′ cells [4]; LREX′ DHT/NT): −2.126 | NES HALLMARK PROTEIN SECRETION (LREX′ cells [4]; LREX′ DHT/NT): 2.849 | NES HALLMARK TNFA SIGNALING VIA NFKB (LREX′ cells [4]; LREX′ DHT/NT): 2.751 | NES HALLMARK UV RESPONSE DOWN (LREX′ cells [4]; LREX′ DHT/NT): 2.496

CNC(=O)c1ccc(N2C(=S)N(c3ccc(C#N)c(C(F)(F)F)c3)C(=O)C2(C)C)cc1F [enzalutamide, reference compound]
reduction of DHT induced transcription ([1]; 1 nM DHT, enzalutamide compared with ARE-1): more potent than ARE-1 in reducing DHT induced transcription | response of VCaP xenografts (VCaP xenografts [10]): modest response | agonist activity (KLK3 mRNA) [9]: no agonist activity
